According to ChEMBL document CHEMBL1144773, “Neolignans, a coumarinolignan, lignan derivatives, and a chromene: anti-inflammatory constituents from Zanthoxylum avicennae” (J Nat Prod, 2008):
pIC50: −log10 of the molar value.

Assay: Antiinflammatory activity in human neutrophils assessed as inhibition of formyl-L-methionyl-L-leucyl-L-phenylalanine/cytochalasin B-induced elastase release
Assay type: functional, cell-based
Details: Neutrophil

pIC50 | Compound
< 4.30 | COc1cc2ccc(=O)oc2c(OC)c1OC [FRAXIDIN METHYL ETHER]
< 4.30 | COc1c2c(c3ccc(=O)oc3c1/C=C/C(C)(C)OC)OC(C)(C)C=C2 [AVICENNOL METHYL ETHER]
< 4.30 | COc1cc([C@@H]2Oc3cc(/C=C/C=O)cc(OC)c3O[C@H]2CO)cc(OC)c1O
< 4.30 | COc1c2ccoc2nc2c(O)cccc12 [ROBUSTINE]
< 4.30 | COc1cc([C@@H]2Oc3c(c(OC)cc4ccc(=O)oc34)O[C@H]2CO)cc(OC)c1OC
< 4.30 | COc1cc2ccc(=O)oc2cc1O [SCOPOLETIN]
< 4.30 | COc1cc([C@@H]2OC[C@@H]3[C@H]2CO[C@H]3c2cc(OC)c(O)c(OC)c2)cc(OC)c1O
< 4.30 | COc1cc(=O)n(C)c2ccccc12
4.72 | COc1ccc2c(OC)c3ccoc3nc2c1OC [SKIMMIANINE]
< 4.30 | COc1c2c(cc3ccc(=O)oc13)C=CC(C)(C)O2 [LUVANGETIN]
< 4.30 | COc1cc([C@@H]2Oc3cc(/C=C/C=O)cc(O)c3O[C@H]2CO)cc(OC)c1OC
4.54 | COc1cc(/C=C\C(=O)OC[C@H]2[C@@H](Cc3cc(OC)c(O)c(OC)c3)CO[C@@H]2c2cc(OC)c(O)c(OC)c2)ccc1O
< 4.30 | COc1cc([C@@H]2Oc3cc(/C=C/C=O)cc(OC)c3O[C@H]2CO)ccc1O
< 4.30 | COc1cc(/C=C/C(=O)OC[C@H]2[C@@H](Cc3cc(OC)c(O)c(OC)c3)CO[C@@H]2c2cc(OC)c(O)c(OC)c2)ccc1O
< 4.30 | COc1cc2ccc(=O)oc2cc1OC [SCOPARONE]
< 4.30 | CC1(C)C=Cc2cc(/C=C/C=O)ccc2O1
< 4.30 | COc1c2ccoc2nc2c(OC)cccc12 [GAMMA-FAGARINE]
< 4.30 | COc1cc([C@@H]2Oc3cc(/C=C/C=O)ccc3O[C@H]2CO)cc(OC)c1O
< 4.30 | Cn1c2ccccc2c(=O)c2ccoc21 [ISODICTAMNINE]
< 4.30 | COc1cc([C@@H]2Oc3c(c(OC)cc4ccc(=O)oc34)O[C@H]2CO)cc(OC)c1O [CLEOMISCOSIN D]
4.49 | COc1c2c(c3ccc(=O)oc3c1/C=C/C(C)(C)O)OC(C)(C)C=C2 [AVICENNOL]
< 4.30 | COc1cc(=O)[nH]c2c(OC)cccc12 [EDULITINE]

Compound | pIC50
O=S(=O)(F)Cc1ccccc1 [PHENYLMETHYLSULFONYLFLUORIDE] | 3.69
COc1c2ccccc2nc2occc12 [DICTAMNINE] | < 4.30

Assay: Antiinflammatory activity in human neutrophils assessed as inhibition of formyl-L-methionyl-L-leucyl-L-phenylalanine/cytochalasin B-induced superoxide anion generation
Assay type: functional, cell-based
Details: Neutrophil

pIC50 | Compound
4.31 | COc1cc2ccc(=O)oc2c(OC)c1OC [FRAXIDIN METHYL ETHER]
4.31 | COc1c2c(c3ccc(=O)oc3c1/C=C/C(C)(C)OC)OC(C)(C)C=C2 [AVICENNOL METHYL ETHER]
4.31 | COc1cc([C@@H]2Oc3cc(/C=C/C=O)cc(OC)c3O[C@H]2CO)cc(OC)c1O
4.74 | COc1c2ccoc2nc2c(O)cccc12 [ROBUSTINE]
4.83 | COc1cc([C@@H]2Oc3c(c(OC)cc4ccc(=O)oc34)O[C@H]2CO)cc(OC)c1OC
< 4.30 | COc1cc2ccc(=O)oc2cc1O [SCOPOLETIN]
4.40 | COc1cc([C@@H]2OC[C@@H]3[C@H]2CO[C@H]3c2cc(OC)c(O)c(OC)c2)cc(OC)c1O
< 4.30 | COc1cc(=O)n(C)c2ccccc12
4.88 | COc1ccc2c(OC)c3ccoc3nc2c1OC [SKIMMIANINE]
< 4.30 | COc1c2c(cc3ccc(=O)oc13)C=CC(C)(C)O2 [LUVANGETIN]
< 4.30 | COc1cc([C@@H]2Oc3cc(/C=C/C=O)cc(O)c3O[C@H]2CO)cc(OC)c1OC
4.55 | COc1cc(/C=C\C(=O)OC[C@H]2[C@@H](Cc3cc(OC)c(O)c(OC)c3)CO[C@@H]2c2cc(OC)c(O)c(OC)c2)ccc1O
< 4.30 | COc1cc([C@@H]2Oc3cc(/C=C/C=O)cc(OC)c3O[C@H]2CO)ccc1O
4.47 | COc1cc(/C=C/C(=O)OC[C@H]2[C@@H](Cc3cc(OC)c(O)c(OC)c3)CO[C@@H]2c2cc(OC)c(O)c(OC)c2)ccc1O
4.37 | COc1cc2ccc(=O)oc2cc1OC [SCOPARONE]
< 4.30 | CC1(C)C=Cc2cc(/C=C/C=O)ccc2O1
4.50 | COc1c2ccoc2nc2c(OC)cccc12 [GAMMA-FAGARINE]
4.57 | COc1cc([C@@H]2Oc3cc(/C=C/C=O)ccc3O[C@H]2CO)cc(OC)c1O
< 4.30 | Cn1c2ccccc2c(=O)c2ccoc21 [ISODICTAMNINE]
4.88 | COc1cc([C@@H]2Oc3c(c(OC)cc4ccc(=O)oc34)O[C@H]2CO)cc(OC)c1O [CLEOMISCOSIN D]
< 4.30 | COc1c2c(c3ccc(=O)oc3c1/C=C/C(C)(C)O)OC(C)(C)C=C2 [AVICENNOL]
4.42 | COc1cc(=O)[nH]c2c(OC)cccc12 [EDULITINE]

Compound | pIC50
COc1c2ccccc2nc2occc12 [DICTAMNINE] | < 4.30
c1ccc2c(c1)[I+]c1ccccc1-2 [DIPHENYLENEIODONIUM] | 5.77
